In patent US9642821B2, “MiR-182 in the diagnosis and treatment of cancer” (Dana-Farber Cancer Institute, Inc., priority 2010, dated 2017):

Tests used:
Assay type in all cases: cell-based
[1] = tested on: HL60 and K562 cells; test: TPA differentiation of blood cells, miR-182 qRT-PCR; details: TPA-treated blood cells
Description: (§1) HL60 cells (0.5×10^6 cells/ml) were differentiated either to neutrophils with 1.3% DMSO for 8 days or to macrophages with 16 nM tetradecanoyl phorbol acetate (TPA) for 3 days; K562 cells (0.5×10^6 cells/ml) to megakaryocytes with 16 nM phorbol myristate acetate (PMA) for 3 days or to erythrocytes with […] for 4 days. HL60 and K562 cells were grown in DMEM or RPMI-1640, respectively, supplemented with 10% (v/v) FBS. MCF-7 cells (10^6 cells/6 cm dish) were differentiated with 100 nM TPA for 3 days in Dulbecco's Modified Eagle Medium (DMEM) with 10% (v/v) fetal bovine serum (FBS) (Cunliffe et al., Cancer Res., 63:7158-66 (2003). The breast cancer lines and human mammary epithelial cells used in experiments shown in FIGS. 6 and 10, were cultured in media according to protocols from the American Type Culture Collection (ATCC®; Manassas, Va.) (www.atcc.org/).
Analysis of the miRNAs of the miR-183 cluster was conducted using qPCR using the TaqMan MicroRNA Assay from Applied Biosystems as per the manufacturer's instructions and normalized to RNU6B snRNA. Analysis of mRNA expression was carried out with qPCR using the SYBR Green master mix (Applied Biosystems, Foster City, Calif.) according to the manufacture's manual and the BioRad iCycler. […]

[2] = tested on: MCF7 cells; test: TPA treatment of MCF7 cells, cell cycle analysis; details: breast cancer lines (MCF7), 100 nM TPA
Description: as §1
MCF-7 cells were differentiated with 100 nM TPA. At day 0, 1, 2, and 3 cells were collected, fixed with 70% cold ethanol and stored at −20° C. Permeabilized cells were centrifuged, washed once with PBS, and incubated for 30 minutes in propidium iodide (PI)/RNase Staining Buffer (BD Pharmingen, San Diego, Calif.) at 25° C. before flow cytometric analysis.

[3] = tested on: PARP; test: PARP activity assay (universal PARP chemiluminescent kit) in MDA-MB231 cells; details: MDA-MB231, increasing concentrations, 100 μM H2O2
Description: MDA-MB231 cells (2×10^6) were plated in 10-cm tissue culture dishes overnight in duplicates. The cells were exposed to the indicated concentrations of 4-Amino-1,8-naphthalimide in phosphate buffered saline (PBS) for 10 minutes on ice followed by 100 μM H2O2 for 20 minutes on ice. The cells were then washed thrice in ice cold PBS for 8-10 minutes and incubated in complete medium with the indicated concentrations of 4-Amino-1,8-naphthalimide at 37° C. The cells were then lysed and PARP activity was measured using the universal PARP chemiluminescent assay kit (Trevigen, Gaithersburg, Md.) as per the manufacturer's instructions.

[4] = tested on: BRCA1 transcript; test: Immunoprecipitation of HA-AGO1/miRNA complex, qRT-PCR of bound transcripts, MDA-MB231; details: MDA-MB231, HA-AGO1 IP, normalized to 5S rRNA
Description: miR-182 cDNA and miR-17 cDNA was cloned from HL60 cDNA in pcDNA3.1-Puro expression vector (Invitrogen, Carlsbad, Calif.) using the following primers: […]
MDA-MB231 cells (0.5×10^6 cells) were co-transfected with 1 μg of HA-AGO1 (pIRES-FLAG/HA vector, Addgene) and 0.5 μg of expression vector for miR-182/miR-17 or miR-scr using Lipofectamine 2000. After 2 days cells were harvested using 400 μl lysis buffer (100 mM KCl, 5 mM MgCl2, 10 mM Hepes, pH 7.0, 0.5% Nonidet P-40) containing freshly added RNase inhibitor, RNaseOUT (Invitrogen, Carlsbad, Calif.) and Protease Inhibitor Cocktail (Roche, Basel, Switzerland). After centrifugation, a 50 μl aliquot of supernatant was taken as the input for subsequent RNA extraction. The remaining supernatant was gently shaken with HA-beads (HA-probe Santa Cruz sc-7392) for 4 h at 4° C. in spin columns (Pierce Spin Columns-Screw Cap). The columns were drained, washed and the retained beads were treated with 5 U DNaseI in NT2 buffer (50 mM Tris, pH7.4, 150 mM NaCl, 1 mM MgCl2, 0.05% Nonidet P-40) for 10 minutes at 37° C., washed with NT2 buffer and then treated with Proteinase K in NT2 buffer plus 1% SDS for 30 minutes at 55° C. […] RNA was reverse transcribed (see RNA isolation) and analyzed with qPCR for enrichment of mRNA of miR-182/miR-17 predicted targets.

[5] = tested on: BRCA1; test: BRCA1 expression after ectopic miRNA overexpression in HL60 cells (immunoblot, qPCR); details: HL60 cells transiently transfected with expression vectors, Western blot
Description: Analysis of the miRNAs of the miR-183 cluster was conducted using qPCR using the TaqMan MicroRNA Assay from Applied Biosystems as per the manufacturer's instructions and normalized to RNU6B snRNA. Analysis of mRNA expression was carried out with qPCR using the SYBR Green master mix (Applied Biosystems, Foster City, Calif.) according to the manufacture's manual and the BioRad iCycler. The mRNA (1 μg) was reverse transcribed with 50 ng random primers using 100 U moloney murine leukemia virus (MMLV) reverse transcriptase (Epicentre, Madison, Wis.) according to the manufacturer's manual. Results were normalized to 5SrRNA or GAPDH.
In each experiment, where Western blot analysis was done, a fraction of 0.2−0.5×10^6 cells was taken out at day, 3 or 4, post-transfection. Breast cancer cell lines were collected from 6 well tissue culture plates (0.5-1×10^6 cells). Cells lysates were prepared in RIPA buffer (150 mM NaCl, 1% NP-40, 0.5% sodium deoxycholate, 0.1% SDS, 50 mM Tris, pH 8.0). Lysates of 0.1×10^6 cells of each sample plus loading buffer were loaded on 8% SDS-PAGE gels, semi-dry transferred on nitrocellulose membrane, and probed with anti-BRCA1 antibody at a 1:500 dilution (CALBIOCHEM, MS110) and anti-tubulin antibody at a 1:10,000 dilution (Sigma, Clone B-5-1-2).

Compound: 12-O-tetradecanoylphorbol-13-acetate [TPA]
- miR-182 expression [1]: induces expression of miR-182
- cell cycle state [2]: leads to a post-mitotic state

Compound: Nc1ccc2c3c(cccc13)C(=O)NC2=O [ANI, 4-Amino-1,8-naphthalimide]
- PARP activity [3]: PARP inhibition was confirmed
- PARP activity ([3]; listed as 4-Amino-1,8-naphthalimide): inhibits PARP activity

Compound: miR-17: another miRNA predicted to target BRCA1; expression vector [reference compound]
- association of miRNA/AGO1 complex with BRCA1 transcript [4]: did not associate

Compound: miR-183: miRNA of cluster-183, co-expressed with miR-182; expression vector (GUAUGGCACUGGUAGAAUUCACUGU; listed as Homo sapiens) [reference compound]
- BRCA1 protein level [5]: did not affect
